Measured values published in patent publication US6825230B2, “Spiro and dispiro 1,2,4-trixolane antimalarials” (Medicines for Malaria Venture MMV, priority 2002, dated 2004).
In brackets after ≈: the same amount, converted by molar mass. Where two headings read alike, the source gives them in different places.

Legend:
[1] = test system: ANKA strain of P. berghei; assay: Single dose STI in vivo screen in infected mice; parameters: species or system Plasmodium berghei; details: for Survival (days) 3 mg/kg SSV po / Activity (%) 3 mg/kg SSV po: single 3 mg/kg po in SSV; for Activity (%) 3 mg/kg SSV po / Activity (%) 10 mg/kg SSV po: percent reduction in parasitemia on day 3; for Survival (days) 10 mg/kg SSV po: single 10 mg/kg po in SSV, untreated 6-7 days; for Activity (%) 10 mg/kg SSV po: single 10 mg/kg po in standard suspending vehicle (SSV) on day 1 post-infection
[2] = test system: chloroquine-sensitive NF54 strain of P. falciparum; assay: In vitro antimalarial semiautomated microdilution assay ([3H]-hypoxanthine incorporation), NF54 strain; type: cell-based, Plasmodium falciparum; details: Plasmodium falciparum
In short: (§1)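 IC50 comes from Logit regression of [3H]-hypoxanthine incorporation data. Intraerythrocytic P. falciparum taken from asynchronous stock cultures is exposed to OZ compounds in a semiautomated microdilution format.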

[3] = test system: chloroquine-resistant K1 strain of P. falciparum; assay: In vitro antimalarial semiautomated microdilution assay ([3H]-hypoxanthine incorporation), K1 strain; type: cell-based, Plasmodium falciparum; details: Plasmodium falciparum
In short: as §1

[4] = test system: Schistosoma mansoni adult worms (49-day-old); assay: Effect on adult schistosomes (49-day-old) in infected mice; type: in vivo
Description: Mice were infected with 100 Schistosoma mansoni cercariae on day 49 post-treatment. Each group was treated per os with OZ compounds at single doses of 200, 400, and 600 mg/kg. Untreated mice served as the control. All groups were killed 4 weeks after treatment and the liver and intestine were removed and separated. The liver and intestine were compressed and alive male and female worms could be seen and counted.

[5] = chloroquine-sensitive NF54 strain, 72 h incubation, read-out: IC50 (ng/ml) NF54
[6] = chloroquine-resistant K1 strain, 72 h incubation, read-out: IC50 (ng/ml) K1
[7] = NF54, 72 h, read-out: IC50 (ng/ml) NF54, chloroquine-sensitive NF54 strain, 72 h incubation
[8] = K1, 72 h, read-out: IC50 (ng/ml) K1, chloroquine-resistant K1 strain, 72 h incubation

SMILES	Survival (days) 3 mg/kg SSV po [1]	Activity (%) 3 mg/kg SSV po [1]	Survival (days) 10 mg/kg SSV po [1]	Activity (%) 10 mg/kg SSV po [1]	IC50 [2, 5]	IC50 [3, 6]	IC50 [2, 7]	IC50 [3, 8]	% reduction of adult worms growth at day 49 after per os application of 400 mg/kg, TWR (%) ([4]; single 400 mg/kg per os, 49-day-old adults, total worm reduction rate)	Adult worms day 49, per os 400 mg/kg, DEAD WORM (%) ([4]; single 400 mg/kg per os, percentage of dead worm in the liver)	% reduction of adult worms growth at day 49 after per os application of 600 mg/kg, TWR (%) ([4]; single 600 mg/kg per os, 49-day-old adults, total worm reduction rate)	Adult worms day 49, per os 600 mg/kg, DEAD WORM (%) ([4]; single 600 mg/kg per os, percentage of dead worm in the liver)
O=C1CN(C(=O)C[C@H]2CC[C@]3(CC2)OO[C@]2(O3)C3CC4CC(C3)CC2C4)CCN1 [OZ296]	9.2 days	90%	10.0 days	99.22%	0.89 ng/mL (≈ 2.2 nM)	0.6 ng/mL (≈ 1.48 nM)	–	–	–	–	–	–
O=C(C[C@H]1CC[C@]2(CC1)OO[C@]1(O2)C2CC3CC(C2)CC1C3)N1CCC(O)CC1 [OZ297]	7.6 days	83%	9.8 days	99.69%	0.76 ng/mL (≈ 1.87 nM)	0.49 ng/mL (≈ 1.21 nM)	–	–	–	–	–	–
O=S(=O)(C[C@H]1CC[C@]2(CC1)OO[C@]1(O2)C2CC3CC(C2)CC1C3)c1ncccn1 [OZ299]	6.4 days	0%	6.6 days	36%	–	–	6.3 ng/mL (≈ 15 nM)	6.8 ng/mL (≈ 16.2 nM)	–	–	–	–
O=C(O)CCC(=O)NC[C@H]1CC[C@]2(CC1)OO[C@]1(O2)C2CC3CC(C2)CC1C3 [OZ300]	7.0 days	0%	6.8 days	6%	97 ng/mL (≈ 247 nM)	71 ng/mL (≈ 180 nM)	–	–	–	–	–	–
NC(=O)CNC(=O)C[C@H]1CC[C@]2(CC1)OO[C@]1(O2)C2CC3CC(C2)CC1C3 [OZ306]	8.2 days	87%	9.2 days	–	–	–	3.6 ng/mL (≈ 9.51 nM)	3.9 ng/mL (≈ 10.3 nM)	–	–	–	–
CS(=O)(=O)C[C@H]1CC[C@]2(CC1)OO[C@]1(O2)C2CC3CC(C2)CC1C3 [OZ307]	7.8 days	74%	9.4 days	98%	–	–	0.88 ng/mL (≈ 2.47 nM)	0.62 ng/mL (≈ 1.74 nM)	–	–	–	–
O=C(O)CNC[C@H]1CC[C@]2(CC1)OO[C@]1(O2)C2CC3CC(C2)CC1C3 [OZ309]	7.8 days	86%	8.8 days	99.80%	–	–	17 ng/mL (≈ 48.4 nM)	11 ng/mL (≈ 31.3 nM)	–	–	–	–
O=C(O)C1CCN(C(=O)C[C@H]2CC[C@]3(CC2)OO[C@]2(O3)C3CC4CC(C3)CC2C4)CC1 [OZ312]	6.2 days	13%	7.2 days	43%	–	–	27 ng/mL (≈ 62.3 nM)	19 ng/mL (≈ 43.8 nM)	–	–	–	–
O=C(C[C@H]1CC[C@]2(CC1)OO[C@]1(O2)C2CC3CC(C2)CC1C3)NCCN1CCOCC1 [OZ313]	7.4 days	58%	10.4 days	–	–	–	0.76 ng/mL (≈ 1.75 nM)	0.55 ng/mL (≈ 1.27 nM)	–	–	–	–
NC1(C(=O)NC[C@H]2CC[C@]3(CC2)OO[C@]2(O3)C3CC4CC(C3)CC2C4)CCCC1 [OZ317]	10.0 days	–	9.8 days	–	0.36 ng/mL (≈ 0.89 nM)	0.33 ng/mL (≈ 0.816 nM)	–	–	–	–	–	–
NCCOc1ccc([C@H]2CC[C@]3(CC2)OO[C@]2(O3)C3CC4CC(C3)CC2C4)cc1 [OZ323]	9.2 days	99.92%	15.6 days	99.98%	–	–	1.1 ng/mL (≈ 2.75 nM)	0.85 ng/mL (≈ 2.13 nM)	–	–	–	–
NC1(C(=O)NC[C@H]2CC[C@]3(CC2)OO[C@]2(O3)C3CC4CC(C3)CC2C4)CCCCC1 [OZ333]	8.0 days	96%	9.2 days	–	0.44 ng/mL (≈ 1.05 nM)	0.24 ng/mL (≈ 0.573 nM)	–	–	–	–	–	–
NOC[C@H]1CC[C@]2(CC1)OO[C@]1(O2)C2CC3CC(C2)CC1C3 [OZ334]	6.6 days	13%	6.8 days	47%	–	–	20 ng/mL (≈ 64.6 nM)	28 ng/mL (≈ 90.5 nM)	–	–	–	–
NNC(=O)C[C@H]1CC[C@]2(CC1)OO[C@]1(O2)C2CC3CC(C2)CC1C3 [OZ340]	6.4 days	36%	9.2 days	93%	–	–	2.9 ng/mL (≈ 8.62 nM)	4.9 ng/mL (≈ 14.6 nM)	–	–	–	–
O=C(C1CCCCC1)N1CC(=O)N2CCc3ccccc3C2C1 (centres unmarked) [PRAZIQUANTEL, praziquantel, reference compound]	–	–	–	–	–	–	–	–	93%	89%	100/100%	100/100%
